Measurements reported in patent publication US20100240748A1, “TETRAHYDRONAPHTHALEN-2-OL DERIVATIVES” (N. V. Organon, priority 2009, published 2010).

Columns and labels:
[1] = biological target: human estrogen receptor β (hERβ) (Homo sapiens, UniProt Q92731); test: ERβ transactivation bioassay in recombinant CHO cells (hERβ, rat oxytocin promoter, luciferase reporter); type: cell-based; conditions: for ERβ/ERα ratio: ERβ agonistic selectivity over ERα, transactivation data; for EC50: transactivation of luciferase in CHO cells co-transfected with hERβ, read-out: ERβ agonistic EC50
human estrogen receptor β (hERβ), sequence (Q92731 whole entry): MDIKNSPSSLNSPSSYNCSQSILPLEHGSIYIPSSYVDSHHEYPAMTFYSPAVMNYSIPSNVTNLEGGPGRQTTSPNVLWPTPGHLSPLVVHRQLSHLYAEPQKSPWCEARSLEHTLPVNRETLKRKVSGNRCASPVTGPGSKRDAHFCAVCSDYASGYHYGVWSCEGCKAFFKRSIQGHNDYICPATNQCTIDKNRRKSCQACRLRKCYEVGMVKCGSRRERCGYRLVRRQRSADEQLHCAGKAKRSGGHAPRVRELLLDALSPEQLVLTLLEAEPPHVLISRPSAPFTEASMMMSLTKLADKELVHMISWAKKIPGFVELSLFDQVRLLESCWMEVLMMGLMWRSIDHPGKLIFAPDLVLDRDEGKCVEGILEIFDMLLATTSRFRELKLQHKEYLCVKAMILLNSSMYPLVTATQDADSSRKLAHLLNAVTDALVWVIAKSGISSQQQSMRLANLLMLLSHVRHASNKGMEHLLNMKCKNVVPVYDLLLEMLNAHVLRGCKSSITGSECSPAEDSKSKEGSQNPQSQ
Description: (§1) The estrogenic and antiestrogenic activity of compounds was determined in an in vitro bioassay with recombinant Chinese hamster ovary (CHO) cells stably co-transfected with the human estrogen receptor α (hERα) or β receptor (hERβ), the rat oxytocin promoter (RO) and the luciferase reporter gene (LUC). The estrogenic activity of a test compound to stimulate the transactivation of the enzyme luciferase mediated via the estrogen receptors hERα or hERβ is expressed in nM. The assay was performed as described by De Gooyer et al., Steroids 68 (2003), 21-30.

[2] = metabolic stability in human hepatocytes; type: in vitro ADME; conditions: human, cryopreserved human hepatocytes (suspension); tetrahydronaphthalen-2-ol; 37° C., sampled 0-120 min, LC-MS/MS; read-out: Human hepatocyte T 1/2
Description: (§2) A number of compounds 9, 11 and 12 were tested on metabolic stability in human hepatocytes. The hepatic stability was compared to corresponding chroman compounds 25, 26 or 27 (see structures below).
(§3) Test compounds were diluted to 3 μM in incubation medium. Then 40 μl of the 3 μM test compounds was pipetted into a 96 well microtiter plate (flat bottom). Hepatocytes (stored at −140° C.) were thawed in a 37° C. water bath. The cells were resuspended into pre-warmed thawing medium and were centrifuged for 5 minutes at 50 g at room temperature. The supernatant was discarded and the remaining cell pellet was resuspended in warm incubation medium and diluted to 7.5 E5 cells/ml. Then 80 μl of the cell suspension was added to each well of the 96 well microtiter plate containing the test compounds. The resulting mixture was incubated at 37° C. and was sampled at t=0, 5, 30, 60, and 120 min. The samples were analyzed by LC-MS/MS to determine the content of unchanged test compound. Based on the rate of reduction of the content of test compound over time, the half-live (T½) was calculated.

[3] = biological target: T1, human estrogen receptor α (hERα) (Homo sapiens, UniProt P03372); test: ERα transactivation bioassay in recombinant CHO cells (hERα, rat oxytocin promoter, luciferase reporter); type: cell-based; conditions: ratio of activities of eutomer and distomer on ERα
T1 sequence (P03372 1-595): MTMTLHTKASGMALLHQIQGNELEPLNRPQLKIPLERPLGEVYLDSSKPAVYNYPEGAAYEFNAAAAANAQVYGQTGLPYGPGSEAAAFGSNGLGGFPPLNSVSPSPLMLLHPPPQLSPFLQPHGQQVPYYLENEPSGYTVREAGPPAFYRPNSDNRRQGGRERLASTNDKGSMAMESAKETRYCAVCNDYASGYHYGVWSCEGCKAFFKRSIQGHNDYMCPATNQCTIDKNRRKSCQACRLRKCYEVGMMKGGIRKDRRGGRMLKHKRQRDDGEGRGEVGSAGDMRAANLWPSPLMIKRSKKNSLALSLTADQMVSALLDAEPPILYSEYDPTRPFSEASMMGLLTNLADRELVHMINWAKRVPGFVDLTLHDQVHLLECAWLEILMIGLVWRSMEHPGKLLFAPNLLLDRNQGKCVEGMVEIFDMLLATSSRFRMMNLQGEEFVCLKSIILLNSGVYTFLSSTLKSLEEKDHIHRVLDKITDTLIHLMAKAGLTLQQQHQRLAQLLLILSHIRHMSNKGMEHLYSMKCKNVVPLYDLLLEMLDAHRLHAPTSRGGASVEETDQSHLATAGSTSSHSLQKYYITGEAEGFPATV
Description: as §1

human hepatocytes = test: metabolic stability in human hepatocytes; type: in vitro ADME; conditions: tetrahydronaphthalen-2-ol; 37° C., sampled 0-120 min, LC-MS/MS
Description: as §2, §3

[4] = test system: acinar epithelium of the ventral prostate; test: short-term prostate apoptosis and proliferation model in castrated rats; type: in vivo, rat
Description: Selected compounds were tested in a short-term prostate apoptosis and proliferation model in castrated rats.
Intact mature male Wistar rats (350-400 g) were castrated and left to recover for 1 week. 7 days after the castration rats received a single subcutaneous injection of testosterone buciclate (TB), a long-acting testosterone ester, in arachis oil (20 mg/kg) with a volume of 1 ml/kg and were subsequently treated once daily orally for 3 days with the test substance at doses between 0 and 1000 μg/kg, dissolved in gelatin/mannitol and dosed with a volume of 1 ml/kg.
At the end of the experiment rats were euthanized, the prostates were removed, weighed and processed for histology.
Apoptosis of the acinar epithelium of the ventral prostate was determined with TUNEL ([…]) staining. Apoptotic cells show nuclear DNA fragmentation and the TUNEL assay end-labels the fragmented DNA by incorporating biotinylated dUTP at the 3′-OH DNA ends using the enzyme Terminal deoxynucleotidyl Transferase (TdT). Positively stained cells are counted per acinus (glandular unit) in the ventral prostate. Proliferation of the acinar epithelium of the ventral prostate was determined by immunohistochemical staining with an antibody directed against Ki67 (clone Mib5). Positively stained cells are counted per acinus (glandular unit) in the ventral prostate. Statistical significance is determined as compared to TB alone by one-way ANOVA.

With `CCC1C(c2ccc(O)c(F)c2)Cc2ccc(O)cc2C1Cc1ccccc1F` (racemic) [Compound 9q, 7-ethyl-6-(3-fluoro-4-hydroxyphenyl)-8-(2-fluorobenzyl)-5,6,7,8-tetrahydronaphthalen-2-ol] the ERβ/ERα ratio [1] was over 67 and the EC50 [1] was 1.5 nM.

Molecule `CC[C@@H]1[C@H](c2ccc(O)c(F)c2)Cc2ccc(O)cc2[C@@H]1Cc1ccccc1F` (single isomer, unassigned) [Compound 12q] has a half-life at 1 µM [2] of over 120 min.

`C[C@H]1[C@@H](c2ccc(O)cc2)Cc2ccc(O)cc2[C@H]1Cc1c(F)cccc1F` (single isomer, unassigned) [Compound 11i] showed a half-life at 1 µM [2] of 29.4 min.

In the case of “(6S,7S,8S)-7-ethyl-6-(3- fluoro-4-hydroxyphenyl)- 8-(2-fluorobenzy1)-5,6, 7,8-tetrahydro- naphthalen-2-ol [Compound 11q]”, the ERβ/ERα ratio [1] is reported as over 169, the ERβ eudismic ratio ([1]; ratio of activities of eutomer and distomer on ERβ) is reported as 7 and the EC50 [1] is reported as 0.59 nM. For the same molecule, the ERα eudismic ratio [3] was under 0.3 and the “Human hepatocyte T 1/2” value (human hepatocytes) was 82.2 min.

In the case of `C[C@@H]1[C@H](c2ccc(O)cc2)Cc2ccc(O)cc2[C@@H]1Cc1c(F)cccc1F` (single isomer, unassigned) [Compound 12i], the half-life at 1 µM [2] is reported as 33.7 min.

In the case of `C[C@H]1[C@@H](c2ccc(O)cc2)Cc2ccc(O)cc2[C@H]1Cc1ccccc1F` (single isomer, unassigned) [Compound 11a], the epithelial cell proliferation ([4]; at 3 μg/kg, Ki67 staining, compared to TB-alone treated rats) is reported as “decrease in epithelial cell proliferation”, the “minimal active dose (MAD), increase in epithelial cell apoptosis” value ([4]; castrated Wistar rats with testosterone buciclate, once daily orally for 3 days, TUNEL staining, ventral prostate) is reported as 3 µg/kg and the epithelial cell apoptosis ([4]; castrated rats, TUNEL staining, compared to TB alone, one-way ANOVA) is reported as “statistically significant (p<0.01) increase in epithelial cell apoptosis”.
